Experiments:
Format in all cases: cell-based, human
[1] = tested on: HOS-143B cells; experiment: Inhibition of induction of apoptosis, Caspase-3/7 activity assay in spheroids; details: U- and V-bottom 96-well plates coated with 0.5% solution diluted 4-fold and 8-fold; day 3 and day 6; concentration-dependent, more pronounced on day 6
Experimental: An aqueous solution of the polypeptide represented by formula (1) was added in two different concentrations (prepared by diluting a 0.5% solution 4-fold and 8-fold) at 100 μL/well and 200 μL/well respectively to two 96-well cell culture plates with different bottom shapes (plate #163320 with a U-shaped bottom; Corning, NY, USA, and plate #277143 with a V-shaped bottom; Thermo Fisher Scientific, MA, USA) and allowed to stand overnight at 4° C. Thereafter, the excess cell culture supplement was removed, and the remaining solution was dried in a clean bench for about 6 hours to complete the treatment with the cell culture supplement. […] After three days and six days, the apoptosis activity per well was measured by using a Caspase activity assay kit (Apo-ONE Homogeneous Caspase-3/7 Assay kit; Promega, WI, USA). […] Thereafter, 100 μL of the culture fluid was transferred to a black 96-well cell culture plate (#237105; Thermo Fisher Scientific, MA, USA), and the value of fluorescence at 590 nm (excitation light at 560 nm) was measured with a plate reader. The value determined by subtracting the value for reagent-only with no cells (blank value) from a measured value was considered to be the measured value for each day of culture, and the values compared to those of the plate not coated with the aqueous solution of the polypeptide represented by formula (1) (control) were plotted.

[2] = tested on: A549 lung cancer cells; experiment: Real-time PCR of cancer stem cell and undifferentiated stem cell marker genes in cancer cell spheroids; details: control no supplement, 2D adhesion proliferation, day 4 = 1.0
Experimental: (§1) A culture vessel treated with the cell culture supplement was prepared in the same manner as in Example 7, and the same three types of cancer cells as those in Example 7 were cultured. On day 4 and day 15 after the start of culture, spheroids of each of the three types of cancer cells were taken from the culture vessel and collected in an individual 15-mb centrifuge tube, followed by washing with phosphate buffered saline (−). After removal of the medium, cancer cells cultured in the plate free of the cell culture supplement (control) were washed with PBS (−), detached from the plate with 0.05% trypsin-EGTA and dissociated. The cancer cells were then collected in a 15-mL centrifuge tube and washed again with PBS (−). mRNA was extracted from the collected spheroids and control cells, and the expression of cancer stem cell marker genes was analyzed by real-time PCR.
(§2) Specifically, a NucleoZOL reagent (Macherey-Nagel) reagent was added to each type of cells, and RNA was extracted according to the protocol recommended by the reagent manufacturer and used as template RNA for detecting stem cell markers. For real-time PCR analysis, PCR probes from QuantiFast Probe RT-PCR Kits (QIAGEN; No. 204454) and TaqMan Gene Expression Assay Probe (Thermo Fisher Scientific) were used. PCR analysis was performed with a Rotor-Gene Q (QIAGEN) apparatus. For probes for detecting the expression of cancer stem cell marker genes, the following three PCR probes were used: CD24 (mucin-type glycoprotein, ligand for P-selectin, Oncogene), CD44 (cell surface glycoprotein involved cell-cell interaction, adhesion and migration, cancer stem cell marker), CD133 (five transmembrane glycoprotein, stem cell marker and cancer stem cell marker protein). B-actin was used as an endogenous control gene. For probes for detecting the expression of undifferentiated stem cell marker genes, three transcription factors, SOX2 (sex-determining region Y-box 2), OCT4 (octamer binding transcription factor 4), and NANOG (homeodomain transcription factor), which are used in the production of iPS cells, were used; and β-actin was used as the endogenous control gene. In the gene expression analysis, relative quantification was performed according to the ΔΔCt method (Delta Delta Ct method). The results of analysis according to the ΔΔCt method show the amount of a gene expressed by control cells under the conditions of “no cell culture supplement, 2D adhesion proliferation, day 4” as “1.0” in relative terms, and the increase rate in “the expression level in spheroid proliferation on day 15” was determined by comparison (FIGS. 23 to 25).
(§3) Coating of a culture vessel was completed in the same manner as in Examples 7 and 11, and three types of cancer cells, A549 cells, ES2 cells, and 143B cells, were cultured. For probes for detecting the expression of undifferentiated stem cell marker genes, the following three transcription factors were used: SOX2 (sex-determining region Y-box 2), OCT4 (octamer binding transcription factor 4), and NANOG (homeodomain transcription factor); and β-actin was used as an endogenous control gene. In the gene expression analysis, relative quantification was performed according to the ΔΔCt method (Delta Delta Ct method). The results of analysis according to the ΔΔCt method show the amount of a gene expressed by control cells under the conditions of “no cell culture supplement, 2D adhesion proliferation, day 4” as “1.0” in relative terms, and the increase rate in “the expression level in spheroid proliferation on day 15” was determined by comparison (FIGS. 26 to 28).

[3] = tested on: HOS-143B osteosarcoma cells; experiment: as above; details: control no supplement, 2D adhesion proliferation, day 4 = 1.0
Experimental: as §1, §2, §3

[4] = tested on: ES2 ovarian cancer cells; experiment: as above; details: for CD24 gene expression level (increase vs control) / CD44 gene expression level (increase vs control) / NANOG gene expression level (increase vs control) / OCT4 gene expression level (increase vs control) / SOX2 gene expression level (increase vs control): control no supplement, 2D adhesion proliferation, day 4 = 1.0
Experimental: as §1, §2, §3

Substance: (Pro-Hyp-Gly)n [cell culture supplement]
- apoptosis (Caspase-3/7 activity) compared with uncoated plate [1]: inhibited
- CD24 gene expression level (increase vs control) ([2]; day 4 of spheroid culture): 2.2 fold
- CD44 gene expression level (increase vs control) ([2]; day 4 of spheroid culture): 1.6 fold
- CD133 gene expression level (increase vs control) ([2]; day 4 of spheroid culture): 3.4 fold
- NANOG gene expression level (increase vs control) ([2]; day 4 of spheroid culture): 10.6 fold
- OCT4 gene expression level (increase vs control) ([2]; day 4 of spheroid culture): 1.6 fold
- SOX2 gene expression level (increase vs control) ([2]; day 4 of spheroid culture): 5.0 fold
- CD24 gene expression level (increase vs control) ([2]; day 15 of spheroid culture): 4.2 fold
- CD44 gene expression level (increase vs control) ([2]; day 15 of spheroid culture): 2.9 fold
- CD133 gene expression level (increase vs control) ([2]; day 15 of spheroid culture): 13.5 fold
- NANOG gene expression level (increase vs control) ([2]; day 15 of spheroid culture): 55.7 fold
- OCT4 gene expression level (increase vs control) ([2]; day 15 of spheroid culture): 3.7 fold
- SOX2 gene expression level (increase vs control) ([2]; day 15 of spheroid culture): 6.0 fold
- CD24 gene expression level (increase vs control) ([3]; day 4 of spheroid culture): 1.34 fold
- CD44 gene expression level (increase vs control) ([3]; day 4 of spheroid culture): 2.3 fold
- CD133 gene expression level (relative to control, printed as decreased) ([3]; day 4 of spheroid culture): 0.3 fold
- NANOG gene expression level (increase vs control) ([3]; day 4 of spheroid culture): 1.6 fold
- OCT4 gene expression level (increase vs control) ([3]; day 4 of spheroid culture): 2.5 fold
- SOX2 gene expression level (increase vs control) ([3]; day 4 of spheroid culture): 3.5 fold
- CD24 gene expression level (increase vs control) ([3]; day 15 of spheroid culture): 1.2 fold
- CD44 gene expression level (increase vs control) ([3]; day 15 of spheroid culture): 1.9 fold
- CD133 gene expression level (increase vs control) ([3]; day 15 of spheroid culture): 2.1 fold
- NANOG gene expression level (increase vs control) ([3]; day 15 of spheroid culture): 1.4 fold
- OCT4 gene expression level (increase vs control) ([3]; day 15 of spheroid culture): 2.4 fold
- SOX2 gene expression level (increase vs control) ([3]; day 15 of spheroid culture): 1.6 fold
- CD24 gene expression level (increase vs control) ([4]; day 4 of spheroid culture): 11.6 fold
- CD44 gene expression level (increase vs control) ([4]; day 4 of spheroid culture): 1.3 fold
- NANOG gene expression level (increase vs control) ([4]; day 4 of spheroid culture): 3.9 fold
- OCT4 gene expression level (increase vs control) ([4]; day 4 of spheroid culture): 2.6 fold
- SOX2 gene expression level (increase vs control) ([4]; day 4 of spheroid culture): 1.1 fold
- CD133 gene expression level (increase vs day 4 spheroid culture) ([4]; day 15 of spheroid culture, CD133 on day 4 in spheroid culture taken as control value (1.0), not detected in adhesion proliferation cells): 8.5 fold
- CD24 gene expression level (increase vs control) ([4]; day 15 of spheroid culture): 63.2 fold
- CD44 gene expression level (increase vs control) ([4]; day 15 of spheroid culture): 2.9 fold
- NANOG gene expression level (increase vs control) ([4]; day 15 of spheroid culture): 10.9 fold
- OCT4 gene expression level (increase vs control) ([4]; day 15 of spheroid culture): 4.6 fold
- SOX2 gene expression level (increase vs control) ([4]; day 15 of spheroid culture): 3.4 fold
